Assay results from patent US6130215A, “Piperazinylalkylthiopyrimidine derivatives, pharmaceutical compositions containing the same and a process for the preparation of the novel compounds” (Egis Gyoyszergyar RT, priority 1995, dated 2000).

Legend:
5-HT2C receptor = target: T1, 5-HT2C receptor (Sus scrofa, UniProt K7GSR7); assay: 5-HT2C receptor binding ([3H]mesulergine, pig brain choroid plexus membrane preparation); details: tritiated mesulergine, 37° C., read-out: Inhibition of receptor binding of the radioactive ligand, 5-HT2C (Ki)
T1 construct: pig brain choroid plexus membrane preparation; from tissue; host or cells: pig brain choroid plexus membrane preparation
T1 sequence (K7GSR7 1-457): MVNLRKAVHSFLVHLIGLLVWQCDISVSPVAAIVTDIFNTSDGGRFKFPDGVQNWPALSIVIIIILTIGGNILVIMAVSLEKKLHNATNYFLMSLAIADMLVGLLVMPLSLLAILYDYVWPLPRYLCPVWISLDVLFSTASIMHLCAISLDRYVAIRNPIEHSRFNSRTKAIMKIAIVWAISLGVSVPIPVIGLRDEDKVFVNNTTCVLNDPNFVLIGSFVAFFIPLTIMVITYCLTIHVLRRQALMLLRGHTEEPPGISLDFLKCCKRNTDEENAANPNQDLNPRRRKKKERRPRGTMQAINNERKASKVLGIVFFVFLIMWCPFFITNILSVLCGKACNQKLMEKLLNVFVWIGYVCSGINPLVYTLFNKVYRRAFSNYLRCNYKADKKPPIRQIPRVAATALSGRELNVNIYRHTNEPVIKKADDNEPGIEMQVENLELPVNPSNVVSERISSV
Experimental: (§1) 5-HT2A and 5-HT2C receptor binding was measured according to the methods described by Leysen et al. /Mol. Pharmacol., 21, 301 (1981)/ and Pazos et al. /Eur. J. Pharmacol., 106, 539 (1985)/, respectively. 5-HT2A receptor binding was measured in rat brain frontal cortex membrane preparation using tritiated ketanserine /3-/2-(4-fluorobenzoyl)- -1-piperidinyl/ethyl-2,4-(1H,3H)-quinazoline-dione/(60-90 Ci/mmole) as ligand. 5-HT2C receptor binding was measured in pig brain choroid plexus membrane preparation using tritiated mesulergine /N'-/(8)-1,6-dimethyl-ergoline-8-yl/-N,N-dimethylsulfamide (70-85 Ci/mmole) as the ligand. Non-specific binding to 5-HT2A and 5-HT2C receptors were determined in the presence of 10 micro M cyproheptadine/4-(5H-dibenzo/a,d/cycloheptene-5-ylidene)-1-methylpiperidine/ and 1 micro M mianserine/1,2,3,4,10,14b-hexahydro-2-methyldibenzo-/c,f/pyrazino/1,2-a/azepine/, respectively. The final incubation volumes were 250 and 1000 microlitres. Samples were incubated for 15 and 30 minutes at 37° C. Incubation was stopped by adding 9 ml of ice-cold 50 mM tris(hydroxymethyl)-aminomethane hydrochloride (pH=7.7) to the reaction mixture. The samples were rapidly filtered through Whatman GF/B glass fiber filters using reduced pressure. Before use, the filters were soaked in a 0.05% poly-ethyleneimine solution for 2 to 3 hours. Radioactivity of the filters was determined by a scintillation spectrometer.

5-HT2A receptor [1] = target: T2, 5-HT2A receptor (Rattus norvegicus, UniProt P14842); assay: 5-HT2A receptor binding ([3H]ketanserine, rat brain frontal cortex membrane preparation); details: tritiated ketanserine, 37° C., read-out: Inhibition of receptor binding of the radioactive ligand, 5-HT2A (Ki)
T2 construct: rat brain frontal cortex membrane preparation; from tissue; host or cells: rat brain frontal cortex membrane preparation
T2 sequence (P14842 whole entry): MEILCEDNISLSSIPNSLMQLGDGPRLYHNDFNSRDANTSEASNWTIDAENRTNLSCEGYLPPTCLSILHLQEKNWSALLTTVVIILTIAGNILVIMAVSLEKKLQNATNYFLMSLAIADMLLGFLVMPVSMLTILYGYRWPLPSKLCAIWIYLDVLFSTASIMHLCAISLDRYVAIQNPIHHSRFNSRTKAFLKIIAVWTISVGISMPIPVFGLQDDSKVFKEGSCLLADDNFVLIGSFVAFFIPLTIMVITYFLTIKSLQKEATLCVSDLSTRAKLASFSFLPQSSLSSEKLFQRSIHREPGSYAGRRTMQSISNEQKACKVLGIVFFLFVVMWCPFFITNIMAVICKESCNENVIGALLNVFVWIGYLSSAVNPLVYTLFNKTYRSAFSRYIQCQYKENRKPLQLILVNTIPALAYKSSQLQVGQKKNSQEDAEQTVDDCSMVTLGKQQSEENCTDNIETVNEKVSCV
Experimental: as §1

[2] = system: rat stomach fundus smooth muscle; assay: Inhibition of serotonin-induced contractions of isolated rat stomach fundus smooth muscle; format: cell-based, rat (male Wistar); details: 5-HT 10^-7 M, 37° C., read-out: Inhibition of 5-HT-evoked contractions of isolated rat stomach fundus, IC50
Experimental: The experiments were performed on male Wistar rats weighing 350 to 400 g. The animals were fasted for 24 hours before the experiments, however, they were allowed to drink tap water ad libitum. The method used was a modified version of Vane et al. /J. Pharmac. Chemother., 12, 344 (1957)/. The rats were killed by decapitation and their stomach was removed, and 3 mm wide and 20 to 30 mm long strips were cut in parallel with the greatest curvature of the stomach. The strips were incubated for 60 minutes in a 6 ml Lucite chamber filled with Tyrode solution (NaCl 136.9 mM, KCl2.7 mM, CaCl2 1.8 mM, MgCl2 1.0 mM, NaHCO3 11.9 mM, glucose 5.6 mM, NaH2 PO4 0.4 mM) warmed to 37° C. and bubbled with a gas consisting of 95% of oxygen and 5% of carbon dioxide. The strips were stretched with 0.5 g during the 60 minutes equilibration time and were washed every 20 minutes. The tension was measured isometrically by a strain gauge (Hugo Sachs) and was recorded on a Graphtech Mark VII 3101 polygraph.
Three control contractions were evoked by 5-HT added to the bath in 10^-7 M concentration (C1, C2, C3).
The effects of the test compounds were determined in 5 increasing concentrations (T2, T3, T4, T5, and T6). After determining the effect of two concentrations of the test compounds, the control 5-HT response was checked after each test measurement.
(§2) IC50 was calculated by nonlinear curve fitting of the inhibitory effect of increasing concentrations of the test compound.

5-HT2A receptor [3] = target: T3, 5-HT2A receptor (Oryctolagus cuniculus, UniProt G1SYA7); assay: 5-HT2A receptor antagonistic effect: inhibition of 5-HT-evoked contractions on isolated rabbit aortic strips; format: cell-based, rabbit (New-Zealand, male, white); details: 5-HT 10^-6 M; phenoxybenzamine 10^-8 M; tranylcypramine 10^-7 M; 10 minutes incubation
T3 construct: The thoracic aorta segment after the aortic arch was removed; from tissue; host or cells: rabbit thoracic aorta, helical strips
T3 sequence (G1SYA7 1-469): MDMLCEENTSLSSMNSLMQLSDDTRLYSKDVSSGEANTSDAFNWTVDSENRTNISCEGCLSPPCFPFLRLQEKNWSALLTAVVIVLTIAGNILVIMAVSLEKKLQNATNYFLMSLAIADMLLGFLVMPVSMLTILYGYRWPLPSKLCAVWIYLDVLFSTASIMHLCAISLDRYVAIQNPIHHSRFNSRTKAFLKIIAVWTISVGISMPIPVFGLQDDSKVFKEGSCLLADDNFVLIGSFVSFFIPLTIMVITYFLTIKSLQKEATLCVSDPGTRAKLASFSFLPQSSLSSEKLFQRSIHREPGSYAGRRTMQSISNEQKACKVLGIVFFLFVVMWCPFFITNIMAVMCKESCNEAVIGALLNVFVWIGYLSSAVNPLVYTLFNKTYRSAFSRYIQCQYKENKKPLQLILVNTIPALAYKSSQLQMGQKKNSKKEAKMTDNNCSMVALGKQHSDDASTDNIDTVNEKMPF
Experimental: New-Zealand, male, white rabbits weighing 2.0 to 2.5 kg were killed by a blow on the head. The thoracic aorta segment after the aortic arch was removed and placed into a Krebs' solution (NaCl 118 mM, KCl 4.6 mM, NaHCO3 25 mM, glucose 10.5 mM, […] 1 mM, KH2PO4 1 mM, CaCl2 2.6 mM). The aorta was carefully cleaned from fat and connective tissue, and was cut into 3 mm wide and 30 mm long helical strips. Four strips were obtained from each rabbit. The strips were equilibrated at 37° C. for 60 minutes in an organ chamber filled with Krebs' solution. The strips were also oxygenated by bubbling carbogen gas (5% of carbon dioxide and 95% of oxygen) through the solution. The strips were stretched by 1 g tension.
The contractions were measured by a Hugo Sachs K-30 type strain gauge, and were registered on a Multicorder type polygraph. During the last 40 minutes of the equilibration, the MAO enzym inhibitor tranylcypramine (10^-7 M) /chemical name: (±)-trans-2-phenylcyclopropylamine/ was also added to the bath.
Any alpha-adrenergic effects of the test compounds were eliminated by 10^-8 M of phenoxybenzamine /N-(2-chloroethyl)-N-(1-methyl-2-phenoxyethyl)benzylamine/ /Clancy et al., J. Pharm. Exp. Ther., 233, 761 (1985). Testing of the serotonergic antagonistic effect was started at the 90th minute of incubation. The stability and reproducibility of the contractile response of the aortic strips to serotonin was tested by two consecutive application and wash-out procedures of 10^-6 M concentration of 5-HT, 40 minutes apart. […] 30 minutes after the second testing, a preset concentration of the test compound was added to the bath, and, after a 10 minutes incubation time, the response to 10^-6 M of 5-HT was determined in the presence of the compound to be tested.
Two different concentrations of a given compound were tested on each aortic strip by the above method. Reproducibility of the control 5-HT-evoked response was checked between testing the two concentrations of the compound.
as §2

human anxiety = details: cited from earlier work

Row | SMILES | Ki (5-HT2C receptor) | Ki (5-HT2A receptor [1]) | IC50 [2] | IC50 (5-HT2A receptor [3]) | effectiveness for the treatment of different forms of human anxiety (human anxiety)
1 | Nc1nc(SCCN2CCN(Cc3ccc([N+](=O)[O-])cc3)CC2)nc(N)c1Cc1ccc(F)cc1 [Example 20, 2-[2-/4-(4-Nitrobenzyl)-1-piperazinyl/-ethylthio]-4,6-diamino-5-(4-fluorobenzyl)-pyrimidine] | > 100 nM | 203 nM | 560 nM | 1500 nM | –
2 | COc1ccc(Cc2c(N)nc(SCCN3CCN(Cc4ccccc4)CC3)nc2N)cc1 [Example 22, 2-/2-(4-Benzyl-1-piperazinyl)ethylthio/-4,6-diamino-5-(4-methoxybenzyl)pyrimidine] | > 100 nM | 56 nM | 320 nM | 420 nM | –
3 | COc1cccc(CN2CCN(CCSc3nc(N)c(Cc4ccccc4OC)c(N)n3)CC2)c1 [Example 31, 2-[2-/4-(3-Methoxybenzyl)-1-piperazinyl/-ethylthio]-4,6-diamino-5-(2-methoxybenzyl)-pyrimidine] | 21 nM | > 100 nM | – | 730 nM | –
4 | COc1cccc(CN2CCN(CCSc3nc(N)c(Cc4ccccc4Cl)c(N)n3)CC2)c1 [Example 44, 2-[2-/4-(3-Methoxybenzyl)-1-piperazinyl/-ethylthio]-4,6-diamino-5-(2-chlorobenzyl)-pyrimidine] | > 100 nM | 93 nM | – | 650 nM | –
5 | Nc1nc(SCCN2CCN(Cc3ccccc3Cl)CC2)nc(N)c1Cc1ccccc1Cl [Example 45, 2-[2-/4-(2-Chlorobenzyl)-1-piperazinyl/ethylthio]-4,6-diamino-5-(2-chlorobenzyl)-pyrimidine] | 25 nM | 27 nM | – | 430 nM | –
6 | Nc1nc(SCCN2CCN(Cc3ccc([N+](=O)[O-])cc3)CC2)nc(N)c1Cc1ccc(Cl)cc1 [Example 48, 2-[2-/4-(4-Nitrobenzyl)-1-piperazinyl/-ethylthio]-4,6-diamino-5-(4-chlorobenzyl)-pyrimidine] | – | – | 420 nM | – | –
7 | CN(C)c1ccc(Cc2c(N)nc(SCCN3CCN(Cc4ccccc4F)CC3)nc2N)cc1 [Example 53, 2-[2-/4-(2-Fluorobenzyl)-1-piperazinyl/-ethylthio]-4,6-diamino-5-(4-dimethylamino-benzyl)pyrimidine] | > 100 nM | 15 nM | – | 470 nM | –
8 | CN(C)c1ccc(Cc2c(N)nc(SCCN3CCN(Cc4cccc(Cl)c4)CC3)nc2N)cc1 [Example 56, 2-[2-/4-(3-Chlorobenzyl)-1-piperazinyl/-ethylthio]-4,6-diamino-5-(4-dimethylamino-benzyl)pyrimidine] | 57 nM | 38 nM | – | 900 nM | –
9 | CN(C)c1ccc(Cc2c(N)nc(SCCN3CCN(Cc4ccc([N+](=O)[O-])cc4)CC3)nc2N)cc1 [Example 57, 2-[2-/4-(4-Nitrobenzyl)-1-piperazinyl/-ethylthio]-4,6-diamiiino-5-(4-dimethylamino-benzyl)pyrimidine] | 42 nM | > 100 nM | 890 nM | 890 nM | –
10 | Nc1nc(SCCN2CCN(Cc3ccc([N+](=O)[O-])cc3)CC2)nc(N)c1Cc1ccc(Br)cc1 [Example 64, 2-[2-/4-(4-Nitrobenzyl)-1-piperazinyl/-ethylthio]-4,6-diamino-5-(4-bromo-benzyl)pyrimidine] | – | – | 680 nM | – | –
11 | COc1cccc(CN2CCN(CCSc3nc(N)c(Cc4cc(OC)c(OC)c(OC)c4)c(N)n3)CC2)c1 [Example 65, 2-[2-/4-(3-Methoxybenzyl)-1-piperazinyl/-ethylthio]-4,6-diamino-5-(3,4,5-trimethoxy-benzyl)pyrimidine] | 42 nM | 34 nM | – | 170 nM | –
12 | COc1cc(Cc2c(N)nc(SCCN3CCN(Cc4ccccc4Cl)CC3)nc2N)cc(OC)c1OC [Example 67, 2-[2-/4-(2-Chlorobenzyl)-1-piperazinyl/-ethylthio]-4,6-diamino-5-(3,4,5-trimethoxy-benzyl)pyrimidine] | 8.6 nM | 4.6 nM | – | 39 nM | –
13 | COc1cc(Cc2c(N)nc(SCCN3CCN(Cc4ccc([N+](=O)[O-])cc4)CC3)nc2N)cc(OC)c1OC [Example 68, 2-[2-/4-(4-Nitrobenzyl)-1-piperazinyl/-ethylthio]-4,6-diamino-5-(3,4,5-trimethoxy-benzyl)pyrimidine] | > 100 nM | 21 nM | – | 780 nM | –
14 | COc1cc(Cc2c(N)nc(SCCN3CCN(Cc4cccc(C(F)(F)F)c4)CC3)nc2N)cc(OC)c1OC [Example 69, 2-[2-/4-(3-Trifluoromethylbenzyl)-1-piperazinyl/ethylthio]-4,6-diamino-5-(3,4,5-trimethoxybenzyl)pyrimidine] | 26 nM | 38 nM | – | 96 nM | –
15 | COc1ccc(Cc2c(N)nc(SCCN3CCN(Cc4ccccc4Cl)CC3)nc2N)cc1 [Example 72, 2-[2-/4-(2-Chlorobenzyl)-1-piperazinyl/-ethylthio]-4,6-diamino-5-(4-methoxy-benzyl)pyrimidine] | 20 nM | 24 nM | – | 84 nM | –
16 | Cc1nc2sccn2c(=O)c1CCN1CCC(=C(c2ccc(F)cc2)c2ccc(F)cc2)CC1 [ritanserin, 6-[2-14-bis(4-fluorophenyl)methylene/-1-piperidinyl-ethyl]-7-7-methyl-5H-thiazolo/3,2-a/pirimidine-5-one] | – | – | – | – | effective for the treatment of different forms of human anxiety
